In the supplement of paper PMC13380429:

Columns and labels:
Conditions in all cases: 72 h
Vero E6 [1] = experiment: relative viability EC50 (midpoint between 100% and the lowest measured viability); higher = less toxic
Caco-2 [2] = experiment: as above
HepG2 [3] = experiment: as above
U2OS [4] = experiment: as above
Calu-3 [5] = experiment: as above
Vero E6 [6] = experiment: drug sensitivity score (DSS) for viability; higher = more toxic; extreme values may be limits of the assay
Caco-2 [7] = experiment: as above
HepG2 [8] = experiment: as above
U2OS [9] = experiment: as above
Calu-3 [10] = experiment: as above
Vero E6 [11] = experiment: cell viability relative to DMSO; higher = less toxic
Caco-2 [12] = experiment: as above
HepG2 [13] = experiment: as above
U2OS [14] = experiment: as above
Calu-3 [15] = experiment: as above

SMILES	relative viability EC50 (Vero E6 [1]) [µM]	relative viability EC50 (Caco-2 [2]) [µM]	relative viability EC50 (HepG2 [3]) [µM]	relative viability EC50 (U2OS [4]) [µM]	relative viability EC50 (Calu-3 [5]) [µM]	drug sensitivity score (Vero E6 [6])	drug sensitivity score (Caco-2 [7])	drug sensitivity score (HepG2 [8])	drug sensitivity score (U2OS [9])	drug sensitivity score (Calu-3 [10])	cell viability (Vero E6 [11]; 1 nM) [%]	cell viability (Vero E6 [11]; 10 nM) [%]	cell viability (Vero E6 [11]; 100 nM) [%]	cell viability (Vero E6 [11]; 1000 nM) [%]	cell viability (Vero E6 [11]; 10000 nM) [%]	cell viability (Caco-2 [12]; 1 nM) [%]	cell viability (Caco-2 [12]; 10 nM) [%]	cell viability (Caco-2 [12]; 100 nM) [%]	cell viability (Caco-2 [12]; 1000 nM) [%]	cell viability (Caco-2 [12]; 10000 nM) [%]	cell viability (HepG2 [13]; 1 nM) [%]	cell viability (HepG2 [13]; 10 nM) [%]	cell viability (HepG2 [13]; 100 nM) [%]	cell viability (HepG2 [13]; 1000 nM) [%]	cell viability (HepG2 [13]; 10000 nM) [%]	cell viability (U2OS [14]; 1 nM) [%]	cell viability (U2OS [14]; 10 nM) [%]	cell viability (U2OS [14]; 100 nM) [%]	cell viability (U2OS [14]; 1000 nM) [%]	cell viability (U2OS [14]; 10000 nM) [%]	cell viability (Calu-3 [15]; 1 nM) [%]	cell viability (Calu-3 [15]; 10 nM) [%]	cell viability (Calu-3 [15]; 100 nM) [%]	cell viability (Calu-3 [15]; 1000 nM) [%]	cell viability (Calu-3 [15]; 10000 nM) [%]
Clc1cccc2c1CN(C1=NCCN1)C2	> 10	> 10	> 10	> 10	> 10	0	0	0	0	0	98.9	98.7	104	98.5	99.2	100	100	95.6	98.8	97.3	96.7	101	91.8	92.5	97.3	101	101	97.3	102	92.1	97.1	90.1	109	101	98.3
O=c1c(O)c(-c2ccc(O)c(O)c2)oc2cc(O)cc(O)c12 [quercetin]	> 10	> 10	> 10	> 10	> 10	0	1.9	0.4	0	0.8	99.3	99	95.9	101	99.3	104	93.6	100	87.6	79.5	94.1	95.8	99.2	99.1	84	99.1	97	98	97	96.1	98.8	100	92.4	92.8	80.5
O=C(c1cc(C2CC2)on1)N(C1CCCCC1)C1CCCCC1 [CYM-5541]	> 10	> 10	> 10	> 10	> 10	0	0	0	0	0	106	103	99.5	95.3	99.6	94.9	97.8	97.5	99.4	90	98.6	93.9	98.4	92.3	89.6	98	97.8	96.3	97.2	94.4	102	98.1	97.2	96.8	99
COC(=O)C[C@H]1CC(c2ccc(O)cc2)=NO1 [ISO-1]	> 10	> 10	> 10	> 10	> 10	0	0	0	0	0	106	99.7	97.1	101	98.5	102	103	96.9	93.5	109	104	102	102	103	94.6	95.2	98.9	96.1	106	96.8	100	109	104	99.5	109
O=C(Cn1ccnc1[N+](=O)[O-])NCCO [etanidazole]	> 10	> 10	> 10	> 10	> 10	0	0	0	0	0	103	104	106	101	97.7	100	94.1	95.9	91.5	92.7	98.7	106	92.3	101	88.8	101	97.1	102	99.1	102	98.8	92.4	94	98.1	107
O=C1CCC[C@@H]2[C@H]3C[C@@H](CN12)[C@@H]1CCCCN1C3 [lupanine]	> 10	> 10	> 10	> 10	> 10	0	1.8	0	0	0	92.1	97.9	93.8	98.1	95.7	103	92.8	90.4	87.2	91.4	99.4	95.7	93	110	93.7	101	96.2	98.6	94	100	87.2	96.8	99.5	95.5	94.4
